# Reference: article PMC10671050, “Alkyl Derivatives of Perylene Photosensitizing Antivirals: Towards Understanding the Influence of Lipophilicity” (International Journal of Molecular Sciences, 2023)
# Entries after “also recorded” stand apart in the source; their conditions may differ. Like-named read-outs stand apart in the source and are kept apart here.
# Assays:
# VSV Indiana strain = assay: microbe, parasite or virus in culture; type: cell-based, vesicular stomatitis Indiana virus; conditions: Vesicular stomatitis virus, HEK-293T, 1 h, read-out: VSV, EC50
# [1] = type: physicochemical; conditions: methanol, DPBF trap, 450–470 nm, relative to riboflavin
# Vero cells = assay: Light-induced cytotoxicity (photocytotoxicity) in Vero cells; type: cell-based, African Green Monkey; conditions: blue light 10 min vs daylight, 0–10 µM, 48 h
# Protocol: (§1) Subsequently, cells treated with the compounds were irradiated with LEDs (465–480 nm, 30 mW/cm^2) for 10 min at RT. As a negative control, compound-treated cells were incubated for 10 min in daylight at RT. Then, both the irradiated and non-irradiated cell monolayers were incubated at 37 °C in the dark for 48 h. Subsequently, the cell culture medium was aspirated and the cytotoxicity of the tested perylene derivatives was determined based on cell viability using Cell Counting Kit-8 (Dojindo Molecular Technologies, Munich, Germany) according to the manufacturer’s instructions. Note: all manipulation with samples was performed in daylight (Figure 7K).
# [2] = as above; type: cell-based, African Green Monkey; conditions: African green monkey, Vero cells; blue light 465–480 nm, 10 min, then 48 h; read-out: cell viability of Vero cells after irradiation
# Protocol: as §1
# [3] = Solubilization in 15% DMSO in water; conditions: for solubility: aqueous with cosolvent or surfactant or cyclodextrin, kinetic from dmso stock
# Protocol: To perform this measurement, the compound was dissolved in DMSO and then diluted with water to achieve a solution containing 15% DMSO. The solution was centrifuged, and the resulting supernatant was lyophilized (evaporated) to dryness. Subsequently, the dry residue was dissolved in DMSO, and the concentration of the compound dissolved in DMSO was determined spectrophotometrically.
# The mixtures were then centrifuged at 20,000 rcf for 5 min; 500 μL of the supernatant were collected and lyophilized; 76 µL of DMSO were added to the dry residue, and the absorbance was measured at the maximum absorption wavelength for compounds in solutions diluted 200 times with methanol. The data obtained were recalculated according to the law of dilutions and Beer’s law to obtain the initial concentrations of the compounds solubilized in 15% DMSO in water.
# HSV-1, strain MacIntyre [4] = assay: Photodynamic inactivation of HSV-1 (virus treated with compound, plaque assay); type: cell-based, herpes simplex virus-1; conditions: for HSV-1-inactivating effect after blue light irradiation: 10 µM
# HSV-1, strain MacIntyre [5] = assay: HSV-1 titer reduction assay in Vero cells; conditions: 48 h; for viral replication and spread in HSV-1-infected Vero cell culture: inside cell culture (Figure 6C)
# [6] = Cytotoxicity assay in Vero cells (Cell Counting Kit-8); type: cell-based; conditions: African green monkey, 48 h incubation, compared to controls (DMSO-treated cells)
# Protocol: Vero cells were cultured for 24 h in 96-well plates to form a confluent monolayer and then were treated with the tested compounds at concentrations of 50 µM. After 48 h of cultivation in the dark at 37 °C under 5% CO2, the cell culture medium was aspirated. The potential cytotoxicity of the tested derivatives was determined based on cell viability using Cell Counting Kit-8 (Dojindo Molecular Technologies, Munich, Germany) according to the manufacturer’s instructions.
# [7] = 10 µM, viral titer in medium supernatant
# [8] = Human alphaherpesvirus 1, 10 min, HSV-1 10^4 PFU/mL, blue light 465–480 nm, 30 mW/cm^2, 10 min, plaque assay, read-out: EC50 (µM) under Blue Light
# [9] = Human alphaherpesvirus 1, 10 min, HSV-1 10^4 PFU/mL, 10 min in daylight, plaque assay, read-out: EC50 (µM) in Daylight
SMILES,EC50 (VSV Indiana strain) [µM],1O2 Quantum Yield [1] [%],solubility [3] [µM],"anti-HSV-1 activity in Vero cells (HSV-1, strain MacIntyre [5]; [7])",also measured
"O=c1[nH]c(=O)n([C@@H]2O[C@H](CO)[C@@H](O)[C@@H]2O)cc1C#Cc1ccc2c3cccc4cccc(c5cccc1c52)c43 [Compound 9, reference compound]",< 10,40.1 ± 4.0,–,–,–
"CCCCCCCCc1ccc2c3cccc4c(C#Cc5cn([C@@H]6O[C@H](CO)[C@@H](O)[C@@H]6O)c(=O)[nH]c5=O)ccc(c5cccc1c52)c43 [Compound 9b, 5-[9(10)-Octylperylen-3-ylethynyl]-arabino-uridine]",10 to 200,18.6 ± 2.3,0.38,only moderately active,"photocytotoxicity to Vero cells (Vero cells): did not increase the cytotoxicity; viability at 48 h [2]: 115 to 128%; times less effectively dissolved than deoxy- and ribo- analogs (10b, 11b) ([3]; 15% DMSO in water): approximately 1.5 times; HSV-1-inactivating effect after blue light irradiation (HSV-1, strain MacIntyre [4]): complete inactivation of HSV-1"
"CCCCCCCCCCCCc1ccc2c3cccc4c(C#Cc5cn([C@@H]6O[C@H](CO)[C@@H](O)[C@@H]6O)c(=O)[nH]c5=O)ccc(c5cccc1c52)c43 [Compound 9c, 5-[9(10)-Dodecylperylen-3-ylethynyl]-arabino-uridine]",> 175,22.5 ± 3.4,0.24,completely inactive,photocytotoxicity to Vero cells (Vero cells): did not increase the cytotoxicity; viability at 48 h [2]: 115 to 128%
"O=c1[nH]c(=O)n([C@@H]2O[C@H](CO)[C@@H](O)[C@H]2O)cc1C#Cc1ccc2c3cccc4cccc(c5cccc1c52)c43 [Compound 10, reference compound]",< 10,33.6 ± 1.2,–,–,"EC50 (HSV-1, strain MacIntyre [4]; [8]): 0.116 µM"
"CCCCc1ccc2c3cccc4c(C#Cc5cn([C@@H]6O[C@H](CO)[C@@H](O)[C@H]6O)c(=O)[nH]c5=O)ccc(c5cccc1c52)c43 [Compound 10a, 5-[9(10)-Butylperylen-3-ylethynyl]-ribo-uridine]",10 to 200,23.1 ± 2.2,0.02,completely inhibited viral replication; also recorded: higher antiviral potency compared to acyclovir,"solubility in 15% DMSO in water ([3]; 15% DMSO in water): lower solubility; Decrease in EC50 (Fold) (HSV-1, strain MacIntyre [4]): 20.3 fold; EC50 (HSV-1, strain MacIntyre [4]; [9]): 2.18 µM; EC50 (HSV-1, strain MacIntyre [4]; [8]): 0.107 µM; viral replication and spread in HSV-1-infected Vero cell culture (HSV-1, strain MacIntyre [5]; 10 µM): did not suppress viral replication and spread; viability at 48 h, 10 µM [6]: ~80%"
"CCCCCCCCc1ccc2c3cccc4c(C#Cc5cn([C@@H]6O[C@H](CO)[C@@H](O)[C@H]6O)c(=O)[nH]c5=O)ccc(c5cccc1c52)c43 [Compound 10b, 5-[9(10)-Octylperylen-3-ylethynyl]-ribo-uridine]",> 200,19.2 ± 1.5,0.59,only moderately active,"HSV-1-inactivating effect after blue light irradiation (HSV-1, strain MacIntyre [4]): complete inactivation of HSV-1"
"CCCCCCCCCCCCc1ccc2c3cccc4c(C#Cc5cn([C@@H]6O[C@H](CO)[C@@H](O)[C@H]6O)c(=O)[nH]c5=O)ccc(c5cccc1c52)c43 [Compound 10c, 5-[9(10)-Dodecylperylen-3-ylethynyl]-ribo-uridine]",> 200,28.7 ± 8.6,0.24,completely inactive,–
"O=c1[nH]c(=O)n([C@H]2C[C@H](O)[C@@H](CO)O2)cc1C#Cc1ccc2c3cccc4cccc(c5cccc1c52)c43 [Compound 11, reference compound]",< 10,38.6 ± 0.8,–,–,–
"CCCCCCCCc1ccc2c3cccc4c(C#Cc5cn([C@H]6C[C@H](O)[C@@H](CO)O6)c(=O)[nH]c5=O)ccc(c5cccc1c52)c43 [Compound 11b, 5-[9(10)-Octylperylen-3-ylethynyl]-deoxy-uridine]",10 to 200,21.0 ± 2.0,0.67,only moderately active,"viability at 48 h, 10 µM [6]: ~120%"
"Oc1ccc(C#Cc2ccc3c4cccc5cccc(c6cccc2c63)c54)cc1 [Compound 12, reference compound]",10 to 200,–,–,–,"EC50 (HSV-1, strain MacIntyre [4]; Human alphaherpesvirus 1, 10 min, read-out: EC50 (µM) under Blue Light): 0.472 µM; viability at 48 h, 10 µM [6]: 109 to 122%"
"Oc1cccc(C#Cc2ccc3c4cccc5cccc(c6cccc2c63)c54)c1 [Compound 13, reference compound]",10 to 200,–,–,–,"viability at 48 h, 10 µM [6]: 109 to 122%"
"Oc1ccc(C#Cc2ccc3c4cccc5cccc(c6cccc2c63)c54)cc1Br [Compound 14, reference compound]",10 to 200,–,–,–,"viability at 48 h, 10 µM [6]: 109 to 122%"
"O=C(O)c1ccc(-c2ccc3c4cccc5cccc(c6cccc2c63)c54)s1 [Compound 15, 5-(perylene-3-yl)thiophenecarboxylic acid, reference compound]",< 10,73.2 ± 8.9,–,–,"EC50 (HSV-1, strain MacIntyre [4]; [8]): 0.038 µM"
"CCCCc1ccc2c3cccc4c(-c5ccc(C(=O)O)s5)ccc(c5cccc1c25)c43 [Compound 15a, 5-[9(10)-Butylperylen-3-yl]thiophene-2-carboxylic acid]",0.2 ± 0.2,91.6 ± 0.2,0.11,complete inhibition; also recorded: higher antiviral potency compared to acyclovir,"Decrease in EC50 (Fold) (HSV-1, strain MacIntyre [4]): 5.4 fold; fold less active than non-alkylated counterparts (12, 15) (HSV-1, strain MacIntyre [4]): ~3 fold; EC50 (HSV-1, strain MacIntyre [4]; HSV-1 10^4 PFU/mL, 10 min in daylight, plaque assay, read-out: EC50 (µM) in Daylight): 0.608 µM; EC50 (HSV-1, strain MacIntyre [4]; HSV-1 10^4 PFU/mL, blue light 465–480 nm, 30 mW/cm^2, 10 min, plaque assay, read-out: EC50 (µM) under Blue Light): 0.112 µM; EC50 (HSV-1, strain MacIntyre [4]; [9]): 0.61 µM; EC50 (HSV-1, strain MacIntyre [4]; [8]): ~0.1 µM; viral replication and spread in HSV-1-infected Vero cell culture (HSV-1, strain MacIntyre [5]; 10 µM): did not suppress viral replication and spread"
"CCCCCCCCc1ccc2c3cccc4c(-c5ccc(C(=O)O)s5)ccc(c5cccc1c25)c43 [Compound 15b, 5-[9(10)-Octylperylen-3-yl]thiophene-2-carboxylic acid]",10 to 200,72.9 ± 5.6,0.1,complete inhibition; also recorded: higher antiviral potency compared to acyclovir,"Decrease in EC50 (Fold) (HSV-1, strain MacIntyre [4]): >3.5 fold; fold less active than non-alkylated counterparts (12, 15) (HSV-1, strain MacIntyre [4]): ~3 fold; HSV-1-inactivating effect in daylight (HSV-1, strain MacIntyre [4]; 0–10 µM, daylight): only partial or no viral inactivation; also recorded: no virus-inactivating effect; EC50 (HSV-1, strain MacIntyre [4]; [9]): > 10 µM; EC50 (HSV-1, strain MacIntyre [4]; [8]): 2.89 µM; viral replication and spread in HSV-1-infected Vero cell culture (HSV-1, strain MacIntyre [5]; 10 µM): did not suppress viral replication and spread"
"CCCCCCCCCCCCc1ccc2c3cccc4c(-c5ccc(C(=O)O)s5)ccc(c5cccc1c25)c43 [Compound 15c, 5-[9(10)-Dodecylperylen-3-yl]thiophene-2-carboxylic acid]",10 to 200,79.8 ± 8.9,0.05,no anti-HSV-1 activity,"HSV-1-inactivating effect after blue light irradiation (HSV-1, strain MacIntyre [4]): no virus-inactivating effect"
"Nc1nc2c(ncn2COCCO)c(=O)[nH]1 [acyclovir, reference compound]",–,–,–,–,"anti-HSV-1 activity in Vero cells (HSV-1, strain MacIntyre [5]; 50 µM): completely inhibited HSV-1 replication"
